Laboratory results from publication PMC12163485 (Drug Metabolism and Disposition, 2025).

What was measured:
OCT1 [1] = conditions: read-out: inhibitory potency for metformin uptake via OCT1; substrate metformin; ref Ahlin et al, 2011; Panfen et al, 2019; cited from earlier work
[2] = Pharmacokinetic parameters used for estimating the potential for DDIs; format: in vivo, human
Protocol: Ka was calculated manually based on available pharmacokinetic parameters.

[3] = cited from earlier work; for cmax = Imax: dose and route as in Supplemental Table 4, ref Hardman, 2018, fenoterol Tzvetkov et al; for cmax = Imax / fraction unbound: ipratropium Zhang et al, 2023; for fraction unbound: fraction unbound in plasma, ref Hardman, 2018, Lombardo et al (2018), fenoterol Tzvetkov et al; for t1/2: ref Hardman, 2018, fenoterol Tzvetkov et al
OCT1 [4] = biological target: T1, OCT1 (Homo sapiens, UniProt O15245); assay: Uptake of the cocktail by HEK293 cells overexpressing human OCT1
T1 sequence (O15245 1-554): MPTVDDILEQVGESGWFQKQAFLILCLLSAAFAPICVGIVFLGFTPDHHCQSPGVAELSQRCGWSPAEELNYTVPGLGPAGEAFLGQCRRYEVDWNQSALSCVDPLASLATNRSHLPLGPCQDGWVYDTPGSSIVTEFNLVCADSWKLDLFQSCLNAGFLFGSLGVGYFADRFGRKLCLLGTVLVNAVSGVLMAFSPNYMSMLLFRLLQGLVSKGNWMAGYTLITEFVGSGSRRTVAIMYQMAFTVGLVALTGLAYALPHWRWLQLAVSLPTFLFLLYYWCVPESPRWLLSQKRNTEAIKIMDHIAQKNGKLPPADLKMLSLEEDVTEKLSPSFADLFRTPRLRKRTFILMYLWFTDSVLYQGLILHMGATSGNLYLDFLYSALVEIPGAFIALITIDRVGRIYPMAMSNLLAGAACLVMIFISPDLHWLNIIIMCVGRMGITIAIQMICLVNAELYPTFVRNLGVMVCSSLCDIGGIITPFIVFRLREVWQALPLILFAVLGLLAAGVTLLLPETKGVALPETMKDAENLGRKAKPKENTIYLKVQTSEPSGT
Protocol: (§1) Significance was calculated using Mann–Whitney U test. n = 5–8 independent experiments.

human OCT1 (hOCT1) = biological target: T2, human OCT1 (hOCT1) (Homo sapiens, UniProt O15245); set-up: expressed in transfected cells; empty vector control pcDNA5; method as in ref column References of Table 2 (Tzvetkov et al, 2018; Morse et al, 2020; Jensen et al, 2020; Meyer et al, 2019, 2022; Wittern et al, 2024 and own unpublished data; Elsby et al, 2017); conditions: literature values; References of Table 2 (Tzvetkov et al, 2018; Morse et al, 2020; Jensen et al, 2020; Meyer et al, 2019, 2022; Wittern et al, 2024 and own unpublished data; Elsby et al, 2017); cited from earlier work
T2 sequence (O15245 1-554): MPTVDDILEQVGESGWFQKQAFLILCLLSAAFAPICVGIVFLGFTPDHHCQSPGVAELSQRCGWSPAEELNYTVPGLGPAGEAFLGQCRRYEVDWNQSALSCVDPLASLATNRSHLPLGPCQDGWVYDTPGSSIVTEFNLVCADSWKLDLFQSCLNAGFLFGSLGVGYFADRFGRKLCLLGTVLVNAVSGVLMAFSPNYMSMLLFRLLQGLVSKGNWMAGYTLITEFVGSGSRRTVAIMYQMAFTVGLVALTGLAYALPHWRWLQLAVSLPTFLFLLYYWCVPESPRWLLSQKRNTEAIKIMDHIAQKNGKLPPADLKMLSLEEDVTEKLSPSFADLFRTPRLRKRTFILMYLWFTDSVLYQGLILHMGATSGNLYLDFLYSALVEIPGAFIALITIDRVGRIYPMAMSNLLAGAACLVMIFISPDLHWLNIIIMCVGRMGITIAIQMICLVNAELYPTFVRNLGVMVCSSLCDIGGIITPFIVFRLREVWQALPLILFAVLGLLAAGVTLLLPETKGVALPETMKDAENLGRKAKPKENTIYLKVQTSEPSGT

mouse OCT1 = biological target: T3, mouse OCT1 (Mus musculus, UniProt O08966); assay: Uptake of the cocktail by HEK293 cells overexpressing mouse Oct1
T3 sequence (O08966 1-556): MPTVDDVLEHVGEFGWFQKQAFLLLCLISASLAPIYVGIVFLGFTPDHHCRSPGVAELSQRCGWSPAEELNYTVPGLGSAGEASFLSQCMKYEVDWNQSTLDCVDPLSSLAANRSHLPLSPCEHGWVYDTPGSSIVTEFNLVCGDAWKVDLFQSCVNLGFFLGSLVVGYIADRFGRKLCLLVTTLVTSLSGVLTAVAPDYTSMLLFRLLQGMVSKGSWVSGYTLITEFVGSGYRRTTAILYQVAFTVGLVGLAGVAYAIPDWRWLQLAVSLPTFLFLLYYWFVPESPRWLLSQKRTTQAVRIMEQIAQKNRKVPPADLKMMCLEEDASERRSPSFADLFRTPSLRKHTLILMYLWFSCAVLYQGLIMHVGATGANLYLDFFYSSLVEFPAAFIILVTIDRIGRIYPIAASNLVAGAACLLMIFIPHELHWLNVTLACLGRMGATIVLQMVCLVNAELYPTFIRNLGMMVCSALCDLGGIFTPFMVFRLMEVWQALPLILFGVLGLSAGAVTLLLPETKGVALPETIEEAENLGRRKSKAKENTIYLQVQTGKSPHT
Protocol: as §1

human OCTN1 (hOCTN1) = biological target: T4, human OCTN1 (hOCTN1) (Homo sapiens, UniProt Q9H015); assay: Uptake of the extended cocktail by HEK293 cells overexpressing hOCTN1; format: in vitro ADME; conditions: Fig. 6
T4 construct: expressed in transfected cells
T4 sequence (Q9H015 1-551): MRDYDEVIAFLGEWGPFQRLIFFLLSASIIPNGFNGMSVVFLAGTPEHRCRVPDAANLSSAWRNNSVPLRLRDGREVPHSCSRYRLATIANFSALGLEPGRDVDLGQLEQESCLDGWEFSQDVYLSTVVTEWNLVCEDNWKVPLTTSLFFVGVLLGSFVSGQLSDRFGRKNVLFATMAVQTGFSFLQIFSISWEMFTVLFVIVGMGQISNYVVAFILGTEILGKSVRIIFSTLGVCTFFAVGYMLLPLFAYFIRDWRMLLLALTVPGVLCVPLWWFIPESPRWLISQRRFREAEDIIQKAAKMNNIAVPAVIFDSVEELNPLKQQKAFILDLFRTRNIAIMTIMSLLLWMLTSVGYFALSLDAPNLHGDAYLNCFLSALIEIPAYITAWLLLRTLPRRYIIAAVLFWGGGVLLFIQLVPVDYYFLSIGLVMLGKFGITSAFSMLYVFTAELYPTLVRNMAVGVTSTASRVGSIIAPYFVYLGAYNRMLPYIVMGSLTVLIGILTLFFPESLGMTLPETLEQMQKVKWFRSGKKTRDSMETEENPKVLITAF

OCT1 [5] = biological target: T1, OCT1; assay: DDI risk R calculated from IC50 at human OCT1; conditions: R=1+fup×Iin,max/IC50, cutoff R ≥ 1.1
OCT1 [6] = conditions: ref Tzvetkov et al, 2018 (fenoterol); Matthaei et al, 2016 (sumatriptan); cited from earlier work
mOct1 = system: mOct1; set-up: method as in ref column References of Table 2 (Morse et al, 2020; Jensen et al, 2020; Meyer et al, 2022); conditions: literature values; References of Table 2 (Morse et al, 2020; Jensen et al, 2020; Meyer et al, 2022); cited from earlier work
[7] = substrate: O=C(O[C@H]1C[C@H]2CC[C@@H](C1)[N+]21CCCC1)C(O)(c1ccccc1)c1ccccc1; assay: Transport kinetics (KM, vmax) of OCT1-mediated uptake, HEK293 cells overexpressing human OCT1; format: in vitro ADME; conditions: mean ± SD, pH 7.4
[8] = substrate: CC(Cc1ccc(O)cc1)NCC(O)c1cc(O)cc(O)c1; assay: cells, lysate or membranes named; conditions: mean ± SD, pH 7.4
[9] = Iin,max=Imax+Fa×ka×D/Qh, Qh 97 L/h, Fa 1, Imax for fenoterol and ipratropium
[10] = unbound maximum inhibitor concentration at the inlet of the liver
[11] = other: hOCT1, substrate tested alone
[12] = other: hOCT1, substrate tested in cocktail

Which IC50 (OCT1 [1]) does the source give for `COc1cc(Cc2cnc(N)nc2N)cc(OC)c1OC` [Trimethoprim, trimethoprim] here?
Its IC50 is […].

And the “I max, portal, u” value ([2]; human, in vivo)?
Its value is 8.53 µM.

And the “Imax, portal” value ([2]; human, in vivo)?
Its value is 3932 ng/mL.

What about the ka ([2]; human, in vivo) of the same molecule?
Its ka is 1.66 h⁻¹.

What about the k el ([2]; human, in vivo, po) of the same molecule?
The k el was 1.92e-05 s⁻¹.

What about the “cmax = Imax” value [3] of the same molecule?
Its value is 1200 ng/mL.

And the fraction unbound [3]?
Its fraction unbound is 0.63.

What about the tmax ([3]; p.o., ref Hardman, 2018) of the same molecule?
Its tmax is 2.00 h.

And the t1/2 [3]?
The t1/2 was 10.00 h.

For `CN(C)CCc1c[nH]c2ccc(C[C@H]3COC(=O)N3)cc12` [Zolmitriptan, zolmitriptan], which “human OCT1 uptake [fold change to pcDNA5]” value (OCT1 [4]; cocktail, fold change to the negative control, n = 12) is on record?
The value was 6.6 fold change to pcDNA5.

What about the Km (human OCT1 (hOCT1)) of the same molecule?
Its Km is 105 µM.

What about the “mouse Oct1 uptake [fold change to pcDNA5]” value (mouse OCT1; fold change to the negative control, n = 12) of the same molecule?
The value was 7.6 fold change to pcDNA5.

With `C[N+](C)(C)[C@@H](Cc1c[nH]c(=S)[nH]1)C(=O)[O-]` [L-ergothioneine] as the molecule, how does the “transport by OCTN1” value (human OCTN1 (hOCTN1)) read?
The value was “transported both L-carnitine and L-ergothioneine”.

For `CC(C)[N+]1(C)[C@@H]2CC[C@H]1C[C@@H](OC(=O)C(CO)c1ccccc1)C2` (stereo partly shown) [Ipratropium, ipratropium], which “Imax, portal” value [2, 9] is on record?
The value was 0.08 ng/mL.

What about the “I max, portal, u” value [2, 10] of the same molecule?
Its value is 0.0002 µM.

Which “transport by OCT1” value (OCT1 [4]; extended cocktail, Fig. 6) does the source give for `CC(Cc1ccc(O)cc1)NCC(O)c1cc(O)cc(O)c1` (stereo not shown) [Fenoterol, fenoterol] here?
The value was “transported only by OCT1”.

What about the “DDI risk R, victim drug ipratropium” value (OCT1 [5]) of the same molecule?
The value was 1.00.

What about the “DDI risk R, victim drug metformin” value (OCT1 [5]) of the same molecule?
Its value is 1.00.

What about the “DDI risk R, victim drug methylnaltrexone” value (OCT1 [5]) of the same molecule?
The value was 1.00.

And the “DDI risk R, victim drug salbutamol” value (OCT1 [5])?
The value was 1.00.

And the “DDI risk R, victim drug sumatriptan” value (OCT1 [5])?
Its value is 1.00.

And the “DDI risk R, victim drug trospium” value (OCT1 [5])?
The value was 1.00.

And the “DDI risk R, victim drug zolmitriptan” value (OCT1 [5])?
The value was 1.00.

And the “increase in systemic exposure in individuals homozygous for OCT1 loss-of-function genetic variants” value (OCT1 [6])?
Its value is 2 fold.

What about the Km (human OCT1 (hOCT1)) of the same molecule?
Its Km is 1.8 µM.

And the “Imax, portal” value [2, 9]?
The value was 1.23 ng/mL.

What about the “I max, portal, u” value [2, 10] of the same molecule?
The value was 0.0021 µM.

And the “cmax = Imax” value [3]?
Its value is 1.23 ng/mL.

What about the fraction unbound [3] of the same molecule?
Its fraction unbound is 0.53.

What about the t1/2 [3] of the same molecule?
Its t1/2 is 1.27 h.

Which results are given for `C[N@+]1(CC2CC2)CC[C@]23c4c5ccc(O)c4O[C@H]2C(=O)CC[C@@]3(O)[C@H]1C5` [Methylnaltrexone, methylnaltrexone]?
Km (mOct1): 8.61 µM; Km (human OCT1 (hOCT1)): 15.2 µM

What does the source list for `COc1ccc(CCN(C)CCCC(C#N)(c2ccc(OC)c(OC)c2)C(C)C)cc1OC` (stereo not shown) [Verapamil, verapamil]?
Imax, portal [2, 9]: 3550 ng/mL; ka ([2]; first-order absorption rate constant, calculated manually from available pharmacokinetic parameters): 2.65 h⁻¹

For `CC(C)(C)NCC(O)c1ccc(O)c(CO)c1` (stereo not shown) [Salbutamol, salbutamol], which Km (mOct1) is on record?
Its Km is 52.2 µM.

What about the Km (human OCT1 (hOCT1)) of the same molecule?
Its Km is 310 µM.

What about the “uptake stronger in mouse than in human OCT1” value (mouse OCT1; ratio mouse/human) of the same molecule?
Its value is 4.5 fold.

B1: human OCT1 (hOCT1) (Homo sapiens) (protein)
chain: MPTVDDILEQVGESGWFQKQAFLILCLLSAAFAPICVGIVFLGFTPDHHCQSPGVAELSQRCGWSPAEELNYTVPGLGPAGEAFLGQCRRYEVDWNQSALSCVDPLASLATNRSHLPLGPCQDGWVYDTPGSSIVTEFNLVCADSWKLDLFQSCLNAGFLFGSLGVGYFADRFGRKLCLLGTVLVNAVSGVLMAFSPNYMSMLLFRLLQGLVSKGNWMAGYTLITEFVGSGSRRTVAIMYQMAFTVGLVALTGLAYALPHWRWLQLAVSLPTFLFLLYYWCVPESPRWLLSQKRNTEAIKIMDHIAQKNGKLPPADLKMLSLEEDVTEKLSPSFADLFRTPRLRKRTFILMYLWFTDSVLYQGLILHMGATSGNLYLDFLYSALVEIPGAFIALITIDRVGRIYPMAMSNLLAGAACLVMIFISPDLHWLNIIIMCVGRMGITIAIQMICLVNAELYPTFVRNLGVMVCSSLCDIGGIITPFIVFRLREVWQALPLILFAVLGLLAAGVTLLLPETKGVALPETMKDAENLGRKAKPKENTIYLKVQTSEPSGT
notes: expressed in transfected cells; empty vector control pcDNA5
Which Km [7, 11] does the source give for B1 here?
The Km was 16.9 ± 2.46 µM.

And the Vmax [7, 11]?
Its Vmax is 0.000647 µmol/min/mg.

And the Km [7, 12]?
Its Km is 13.9 ± 1.61 µM.

And the Vmax [7, 12]?
The Vmax was 0.000637 µmol/min/mg.

And the Km [8, 11]?
The Km was 0.94 ± 0.24 µM.

And the Km [8, 12]?
Its Km is 0.95 ± 0.38 µM.
